Source: US9682980B2, “Positive allosteric modulators of mGluR2” (BRISTOL-MYERS SQUIBB COMPANY, priority 2012, dated 2017)

What was measured:
human mGluR2 = human mGluR2 (Homo sapiens (Human), UniProt Q14416); experiment: MGluR2 cAMP assay; format: cell-based; conditions: HEK293 cells clonally expressing human mGluR2, 1 μM forskolin, 1 μM LY-341495
Experimental: Clonally expressed human mGluR2 in HEK293 background was glutamate starved overnight in media without glutamine (GIBCO MEM 12360), containing 10% FBS, 1% penicillin streptomycin.
On the day of the assay, media was removed, cells washed with PBS, cells harvested and pelleted by centrifugation. Cell pellets were resuspended in stimulation buffer without forskolin and counted. A solution of 1.25×10^6 cells/ml was prepared and dispensed to plates using a Combi liquid handler (Thermo). A standard curve was created using a top concentration of cAMP of 1 μM in the stimulation buffer, 1:3 dilutions over 14 points in the absence of cells. Plates were read by time-resolved fluorescence at […] and a ratio was calculated via in house software, (665 nM/618 nM)*10^4. In house software converted the fluorescence value ratios to units of cAMP concentration, which is then used to calculate % inhibition for each test compound.
Compounds were added to white, standard volume 384 non-binding surface plates (Corning 3574). Cells were resuspended in stimulation buffer consisting of Hanks Balanced Salt Solution (14175-095) pH 7.0, 20 mM HEPES, 2.0 mM CaCl2, 5.0 mM MgCl2, and 1 mM IBMX (Sigma 15879), 1 μM forskolin, and 1 μM LY-341495, for 30 minutes. Buffer without forskolin was used as a negative control. Solutions of D2 and cryptate detection reagents from the CISBIO dynamic cAMP kit (62AM4PEJ) were diluted 1:40 in lysis buffer. Lysis buffer consisted of 50 mM Phosphate Buffer pH 7.0, 800 mM Potassium Fluoride, 0.2% BSA, and 1.0% Triton. Assay reaction was terminated by addition of detection reagents in lysis buffer. One hour later, plates were read on a PE Viewlux. Data was extracted, and concentration response curves generated by fitting the data to a standard 4 parameter logistic equation from which EC50 values were determined See table 1: A: <10 nM; B: 10-100 nM; C: 100-1000 nM; D: 1000-10000 nM.

[1] = system: rats treated with phencyclidine (PCP); conditions: cited from earlier work
GAD patients = conditions: cited from earlier work
schizophrenia = conditions: cited from earlier work

Chain of human mGluR2 (Q14416 19-872): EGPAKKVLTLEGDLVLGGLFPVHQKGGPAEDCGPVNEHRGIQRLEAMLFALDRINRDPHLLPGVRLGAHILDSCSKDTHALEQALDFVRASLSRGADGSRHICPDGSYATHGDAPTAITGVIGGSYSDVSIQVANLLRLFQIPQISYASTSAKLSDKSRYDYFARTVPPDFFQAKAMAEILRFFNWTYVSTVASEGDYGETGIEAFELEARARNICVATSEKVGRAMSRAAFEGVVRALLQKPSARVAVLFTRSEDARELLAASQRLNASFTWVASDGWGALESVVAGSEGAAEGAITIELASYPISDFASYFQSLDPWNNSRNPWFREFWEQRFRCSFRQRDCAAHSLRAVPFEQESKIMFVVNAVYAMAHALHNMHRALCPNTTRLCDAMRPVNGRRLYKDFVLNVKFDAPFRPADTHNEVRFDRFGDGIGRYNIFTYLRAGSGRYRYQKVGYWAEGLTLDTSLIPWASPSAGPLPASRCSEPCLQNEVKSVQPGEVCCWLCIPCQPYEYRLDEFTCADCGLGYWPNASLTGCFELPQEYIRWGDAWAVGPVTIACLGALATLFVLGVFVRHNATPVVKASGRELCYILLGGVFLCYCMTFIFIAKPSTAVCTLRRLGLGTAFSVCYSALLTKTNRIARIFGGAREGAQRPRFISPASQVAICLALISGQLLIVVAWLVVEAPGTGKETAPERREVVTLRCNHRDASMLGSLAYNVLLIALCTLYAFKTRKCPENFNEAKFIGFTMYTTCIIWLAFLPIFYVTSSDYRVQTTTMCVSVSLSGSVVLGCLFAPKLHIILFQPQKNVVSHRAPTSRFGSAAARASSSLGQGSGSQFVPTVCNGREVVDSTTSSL

Row | SMILES | EC50 (human mGluR2) | further results
1 | CC(C)Cc1nnc2c(Cl)c(N3CCC(c4ccccc4)CC3)cnn12 [Example 58, 8-Chloro-3-isobutyl-7-(4-phenylpiperidin-1-yl)-[1,2,4]triazolo[4,3-b]pyridazine] | 201 nM | 
2 | Clc1c(N2CCC(c3ccccc3)CC2)cnn2c(CCC3CC3)nnc12 [Example 59, 8-Chloro-3-(2-cyclopropylethyl)-7-(4-phenylpiperidin-1-yl)-[1,2,4]triazolo[4,3-b]pyridazine] | 121 nM | 
3 | FC(F)(F)Cc1nnc2c(Cl)c(N3CCC(c4cccc(Cl)c4Cl)CC3)cnn12 [Example 60, 8-Chloro-7-(4-(2,3-dichlorophenyl)piperidin-1-yl)-3-(2,2,2-trifluoroethyl)-[1,2,4]triazolo[4,3-b]pyridazine] | 94 nM | 
4 | Clc1c(NC2CCC(c3ccccc3)CC2)cnn2c(CC3CC3)nnc12 (stereo not shown) [Example 61, 8-Chloro-3-(cyclopropylmethyl)-N-(4-phenylcyclohexyl)-[1,2,4]triazolo[4,3-b]pyridazin-7-amine] | 225 nM | 
5 | O=C1Oc2ccccc2C12CCN(c1cnn3c(CC4CC4)nnc3c1Cl)CC2 [Example 62, 1′-(8-Chloro-3-(cyclopropylmethyl)-[1,2,4]triazolo[4,3-b]pyridazin-7-yl)-2H-spiro[benzofuran-3,4′-piperidin]-2-one] | 47 nM | 
6 | O=C1Oc2ccccc2C12CCN(c1cnn3c(CC(F)(F)F)nnc3c1Cl)CC2 [Example 63, 1′-(8-Chloro-3-(2,2,2-trifluoroethyl)-[1,2,4]triazolo[4,3-b]pyridazin-7-yl)-2H-spiro[benzofuran-3,4′-piperidin]-2-one] | 185 nM | 
7 | FC(F)(F)Cc1nnc2c(Cl)c(NC3CCC(c4ccccc4)CC3)cnn12 (stereo not shown) [Example 64, 8-Chloro-N-(4-phenylcyclohexyl)-3-(2,2,2-trifluoroethyl)-[1,2,4]triazolo[4,3-b]pyridazin-7-amine] | 733 nM | 
8 | FC(F)(F)c1ccccc1C1CCN(c2cnn3c(CC4CC4)nnc3c2Cl)CC1 [Example 65, 8-Chloro-3-(cyclopropylmethyl)-7-(4-(2-(trifluoromethyl)phenyl)piperidin-1-yl)-[1,2,4]triazolo[4,3-b]pyridazine] | 36 nM | 
9 | FC(F)(F)Cc1nnc2c(Cl)c(N3CCC(c4ccccc4C(F)(F)F)CC3)cnn12 [Example 66, 8-Chloro-3-(2,2,2-trifluoroethyl)-7-(4-(2-(trifluoromethyl)phenyl)piperidin-1-yl)-[1,2,4]triazolo[4,3-b]pyridazine] | 23 nM | 
10 | Fc1ccccc1C1CCN(c2ncn3c(CC(F)(F)F)nnc3c2Cl)CC1 [Example 67, 8-Chloro-7-(4-(2-fluorophenyl)piperidin-1-yl)-3-(2,2,2-trifluoroethyl)-[1,2,4]triazolo[4,3-c]pyrimidine] | 5 nM | 
11 | Fc1ccccc1C1CCN(c2ncn3c(CC4CC4)nnc3c2Cl)CC1 [Example 68, 8-Chloro-3-(cyclopropylmethyl)-7-(4-(2-fluorophenyl)piperidin-1-yl)-[1,2,4]triazolo[4,3-c]pyrimidine] | 4 nM | 
12 | Fc1ccc(C2CCN(c3ncn4c(CC(F)(F)F)nnc4c3Cl)CC2)cc1 [Example 69, 8-Chloro-7-(4-(4-fluorophenyl)piperidin-1-yl)-3-(2,2,2-trifluoroethyl)-[1,2,4]triazolo[4,3-c]pyrimidine] | 438 nM | 
13 | COc1cccc(F)c1C1CCN(c2cnn3c(CC4CC4)nnc3c2C(F)(F)F)CC1 [Example 70, 3-(Cyclopropylmethyl)-7-(4-(2-fluoro-6-methoxyphenyl)piperidin-1-yl)-8-(trifluoromethyl)-[1,2,4]triazolo[4,3-b]pyridazine] | 3 nM | 
14 | COc1cccc(F)c1C1CCN(c2cnn3c(CC4CC4)nnc3c2C(F)(F)F)CC1 [Example 71, 3-(Cyclopropylmethyl)-7-(4-(2-fluoro-6-methoxyphenyl)piperidin-1-yl)-8-(trifluoromethyl)-[1,2,4]triazolo[4,3-b]pyridazine] | 4 nM | 
15 | N#Cc1ccccc1C1CCN(c2cnn3c(CC4CC4)nnc3c2Cl)CC1 [Example 72, 2-(1-(8-Chloro-3-(cyclopropylmethyl)-[1,2,4]triazolo[4,3-b]pyridazin-7-yl)piperidin-4-yl)benzonitrile] | 15 nM | 
16 | N#Cc1ccccc1C1CCN(c2cnn3c(CC(F)(F)F)nnc3c2Cl)CC1 [Example 73, 2-(1-(8-chloro-3-(2,2,2-trifluoroethyl)-[1,2,4]triazolo[4,3-b]pyridazin-7-yl)piperidin-4-yl)benzonitrile] | 18 nM | 
17 | Fc1ccc(C2CCN(c3cnn4c(CC5CC5)nnc4c3Cl)CC2)c(F)c1 [Example 74, 8-Chloro-3-(cyclopropylmethyl)-7-(4-(2,4-difluorophenyl)piperidin-1-yl)-[1,2,4]triazolo[4,3-b]pyridazine] | 14 nM | 
18 | Fc1ccc(C2CCN(c3cnn4c(CC(F)(F)F)nnc4c3Cl)CC2)c(F)c1 [Example 75, 8-Chloro-7-(4-(2,4-difluorophenyl)piperidin-1-yl)-3-(2,2,2-trifluoroethyl)-[1,2,4]triazolo[4,3-b]pyridazine] | 16 nM | 
19 | FC(F)(F)c1cccnc1C1CCN(c2cnn3c(CC4CC4)nnc3c2Cl)CC1 [Example 76, 8-Chloro-3-(cyclopropylmethyl)-7-(4-(3-(trifluoromethyl)pyridin-2-yl)piperidin-1-yl)-[1,2,4]triazolo[4,3-b]pyridazine] | 34 nM | 
20 | N#Cc1ccccc1C1CCN(c2cnn3c(CC4CC4)nnc3c2C(F)(F)F)CC1 [Example 77, 2-(1-(3-(Cyclopropylmethyl)-8-(trifluoromethyl)-[1,2,4]triazolo[4,3-b]pyridazin-7-yl)piperidin-4-yl)benzonitrile] | 4 nM | 
21 | N#Cc1ccccc1C1CCN(c2cnn3c(CC(F)(F)F)nnc3c2C(F)(F)F)CC1 [Example 78, 2-(1-(3-(2,2,2-Trifluoroethyl)-8-(trifluoromethyl)-[1,2,4]triazolo[4,3-b]pyridazin-7-yl)piperidin-4-yl)benzonitrile] | 7 nM | 
22 | Clc1c(N2CCC(c3ccccn3)CC2)cnn2c(CC3CC3)nnc12 [Example 79, 8-Chloro-3-(cyclopropylmethyl)-7-(4-(pyridin-2-yl)piperidin-1-yl)-[1,2,4]triazolo[4,3-b]pyridazine] | 382 nM | 
23 | COc1c(F)ccc(F)c1C1CCN(c2cnn3c(CC4CC4)nnc3c2C(F)(F)F)CC1 [Example 80, 3-(Cyclopropylmethyl)-7-(4-(3,6-difluoro-2-methoxyphenyl)piperidin-1-yl)-8-(trifluoromethyl)-[1,2,4]triazolo[4,3-b]pyridazine] | 0.2 nM | 
24 | COc1c(F)ccc(F)c1C1CCN(c2cnn3c(CC(F)(F)F)nnc3c2C(F)(F)F)CC1 [Example 81, 7-(4-(3,6-Difluoro-2-methoxyphenyl)piperidin-1-yl)-3-(2,2,2-trifluoroethyl)-8-(trifluoromethyl)-[1,2,4]triazolo[4,3-b]pyridazine] | 0.4 nM | 
25 | Clc1c(N2CCC(c3cccnc3)CC2)cnn2c(CC3CC3)nnc12 [Example 82, 8-Chloro-3-(cyclopropylmethyl)-7-(4-(pyridin-3-yl)piperidin-1-yl)-[1,2,4]triazolo[4,3-b]pyridazine] | 809 nM | 
26 | COc1cccnc1C1CCN(c2cnn3c(CC(F)(F)F)nnc3c2Cl)CC1 [Example 83, 8-Chloro-7-(4-(3-methoxypyridin-2-yl)piperidin-1-yl)-3-(2,2,2-trifluoroethyl)-[1,2,4]triazolo[4,3-b]pyridazine] | 42 nM | 
27 | Fc1ccccc1C1CCN(c2cnn3c(CC4CC4)nnc3c2C(F)(F)F)CC1 [Example 84, 3-(Cyclopropylmethyl)-7-(4-(2-fluorophenyl)piperidin-1-yl)-8-(trifluoromethyl)-[1,2,4]triazolo[4,3-b]pyridazine] | 4 nM | 
28 | N[C@@]1(C(=O)O)CC[C@H]2[C@H](C(=O)O)[C@H]21 [LY-354740] |  | brain glutamate levels [1]: lowered brain glutamate levels; behavioral effects of PCP ([1]; hyper-locomotion and working memory deficits): reversed the behavioral effects of PCP
29 | C[C@H](N)C(=O)N[C@@]1(C(=O)O)CC[C@H]2[C@H](C(=O)O)[C@H]21 [LY-544344] |  | therapeutic effects for anxiety (GAD patients): therapeutic effects
30 | CSCC[C@H](N)C(=O)N[C@@]1(C(=O)O)CS(=O)(=O)[C@H]2[C@H](C(=O)O)[C@H]21 [LY-2140023] |  | positive and negative symptoms in schizophrenia (schizophrenia): relief of positive and negative symptoms
